The source of these data is patent US20220265625A1, “COMPOSITIONS AND METHODS USING TRIGONELLINE AND MINERALS FOR PREVENTING OR TREATING CONDITIONS OR DISORDERS IN SKELETAL MUSCLE” (SOCIETE DES PRODUITS NESTLE S.A., priority 2019, published 2022).

Assay [1] relates to C. elegans. Particulars: 1 mM. On the procedure: C. elegans mobility test was performed using the Movement Tracker software (Mouchiroud, L. et al. Curr Protoc Neurosci 77, 8.37.1-8.37.21 (2016)). The experiments were repeated at least twice. Trigonelline treatment and experimental measurements were started at Day 1 of wild type N2 worm adulthood, in a regimen of chronic exposure till experiments termination.

For assay [2], the system named is C. elegans. Particulars: 1mM, chronic exposure from Day 1 adulthood. On the procedure: Worm lifespan tests were performed using about 100 animals per condition and scored manually every other day. Trigonelline treatment and experimental measurements were started at Day 1 of wild type N2 worm adulthood, in a regimen of chronic exposure till experiments termination.

The test system of assay [3] is C. elegans. Particulars: 1 mM, day 8 and day 11 old worms. The source says: 45 to 60 worms per condition were manually scored for mobility after poking. Worms that were unable to respond to any repeated stimulation were scored as dead. […] Trigonelline treatment and experimental measurements were started at Day 1 of wild type N2 worm adulthood, in a regimen of chronic exposure til experiments termination.

The subject of another assay is Human primary myoblasts. The experiment in a line: NAD+ colorimetric quantification in differentiated human primary myoblasts. It counts as cell-based. Particulars: 16h, different doses. As for the experimental part: After one day, the differentiation is induced by a medium change for 4 days. Cells were treated with synthetic trigonelline monohydrate (FIG. 4A) or with Fenugreek seed extract enriched in trigonelline containing 40.45% trigonelline (FIG. 4B) for 16h at difference doses. NAD+was measured using colorimetric NAD+quantification assay (Biovision NAD+/NADH Quantitation Colorimetric Kit #k337-100).

The next assay has as its system C57BL/6JRj male mice. The experiment in a line: Liver NAD+ after oral gavage in mice. In kind it is in vivo. Particulars: equimolar of 300mg/kg trigonelline, 120 minutes. As for the experimental part: 10 weeks C57BL/6JRj male mice received trigonelline (sigma #T5509) or fenugreek seed extract enriched in trigonelline (40.45% trigonelline) by oral gavage (equimolar of 300mg/kg trigonelline, n=8/group). After 120 minutes treatment, the liver was harvested and flash frozen in liquid nitrogen. NAD+was measured in liver using an enzymatic method adapted from Dall, M., et al., Mol Cell Endocrinol, 2018. 473: p. 245-256.

Assay [4] relates to RW1596 (myo-3p::GFP) worms. The conditions noted are these: 1mM trigonelline chloride, 11 day old worms. As for the experimental part: RW1596 (myo-3p::GFP) worms were collected at Day 1 (young adults) and at Day 11 (aged animals) for muscle integrity assessment. Worms were immobilized with tetramisole and analyzed by confocal microscopy, to assess the muscle fibers morphology shown by GFP fluorescence imaging. Trigonelline treatment with 1mM trigonelline chloride and experimental measurements were started at Day 1 of wild type N2 worm adulthood, in a regimen of chronic exposure till experiments termination.

The subject of assay [5] is C. elegans. The conditions noted are these: 1mM trigonelline chloride, day 8 old worms. As for the experimental part: Absolute quantification of the mtDNA copy number in wild type N2 worms was performed by real-time PCR. Relative values for nduo-1, and act-1 were compared within each sample to generate a ratio representing the relative level of mitochondrial DNA per nuclear genome. The average of at least two technical repeats was used for each biological data point. Each experiment was performed on at least ten independent biological samples (individual worms). Trigonelline treatment with 1mM trigonelline chloride and experimental measurements were started at Day 1 of wild type N2 worm adulthood, in a regimen of chronic exposure till experiments termination.

For assay [6], the system named is Human Skeletal Muscle Myotubes (HSMM). Particulars: 6h. On the procedure: Human primary myoblasts from two different donors were seeded in 6 well plates at a density of 200′000 cells per well in skeletal muscle growth medium (SKM-M, AMSbio). After one day, the differentiation was induced by a medium change for 4 days using differentiation culture medium
(Gibco No. 31330-028). Cells were treated with isotopically labelled trigonelline (^13C carbonyl; 3^2H on methyl) for 6h.
Cell extracts were separated on a Vanquish UHPLC +focused LC system (Thermo Scientific) with a hydrophilic liquid chromatography (HILIC) iHILIC-Fusion(P) column (Hilicon) carrying the dimensions 150 x 2.1 mm, 5 pm and a guard column (iHILIC-fusion(P), Hilicon) in front. The separation of metabolites was achieved by applying a linear solvent gradient in normal phase at 0.25 mL/min flow rate and 35° C. of temperature. As mobile phase, solvent A was water with 10 mM ammonium acetate and 0.04% (v/v) ammonium hydroxide, pH ˜9.3, and solvent B was acetonitrile.
The eluting metabolites were analyzed with an Orbitrap Fusion Lumos mass spectrometer (Thermo Scientific) with a heated electrospray ionization (H-ESI) source in positive and negative mode at a resolution of 60,000 at m/z of 200. Instrument control and data analysis were conducted using Xcalibur (Thermo Scientific).

SMILES strings stand for the structures.

With `C[n+]1cccc(C(=O)O)c1` [trigonelline chloride], the “distance travelled during spontaneous mobility assay vs control” value in the assay with C. elegans [1] (advanced aging phase) is reported as “significantly increased”. The “mean speed during spontaneous mobility assay vs control” value with C. elegans [1] (from day 1 adulthood) is recorded as “increased the mean speed”. The increase in lifespan with C. elegans [2] was found to be 21%. In addition, in the assay on C. elegans [3], the “stimulated mobility score (worms responsive to a physical stimulus)” value is reported as “more responsive to a physical stimulus than the control”.

Regarding `C[n+]1cccc(C(=O)O)c1.[OH-]` [chemically synthesized trigonelline], in the assay with Human primary myoblasts, the “NAD+ content compared to the control” value was “significant increase”. In addition, the “NAD+ content in the liver compared to the control” value in the assay with C57BL/6JRj male mice was “significant increase”.

Turning to `C[n+]1cccc(C(=O)[O-])c1` [trigonelline, 1-methylpyridin-1-ium-3-carboxylate], in assay [4], the “myofibrillar structure (GFP-tagged myosin) vs age matched control” value is reported as “improved more organized myofibrillar structure”. Besides, the “mitochondrial expression relative to nuclear expression (mt/nDNA, nduo-1/act-1)” value with C. elegans [5] was “higher than in the control group”. Moreover, in assay [6] (HSMM from 2 donors, 500pm, LC-MS), the “NAD+ relative concentration vs control (FIG. 2A)” value is “enhancement”.

As to `[2H]C([2H])([2H])[n+]1cccc([13C](=O)[O-])c1` [labelled trigonelline, reference compound], the “relative abundance of labelled NAD+(M+1) (FIG. 2B)” value in assay [6] (labelled trigonelline 500pm, vs naturally occurring NAD+ in control) is “increase”.
